Structures are written as SMILES. Counter-ions that a name gives are not always drawn.

In the case of `CNCc1cnccc1Oc1ccc(Cl)c(Cl)c1` (as salt: hydrochloride) [Example 103, [4-(3,4-Dichlorophenoxy)-3-pyridinyl]-N-methylmethanamine hydrochloride], the melting point fell in the range of 198 to 203 °C.
`CNCc1cccnc1Oc1ccc(Cl)c(Cl)c1` (as salt: HCl) [Example 105, [2-(3,4-Dichlorophenoxy)-3-pyridinyl]-N-methylmethanamine] gave a melting point of 198 to 203 °C.
The compound `CN(C)Cc1cccnc1Oc1ccc(Cl)cc1` (as salt: hydrochloride) [Example 106, [2-(4-Chlorophenoxy)-3-pyridinyl]-N,N-dimethylmethanamine hydrochloride] came in with a melting point of 195 to 197 °C.
`CNCc1cc2ccccc2nc1Oc1ccc(Cl)c(Cl)c1` (as salt: HCl) [Example 104, [2-(3,4-Dichlorophenoxy)-3-quinolinyl]-N-methylmethanamine]: the melting point lay in the range of 224 to 226 °C.
